Results as given in PubChem BioAssay AID330 (DTP/NCI, 2004).
Where “and” joins values, the source holds several entries; their conditions need not be identical. Equal entries are not always repeated. Inconclusive results and toxic doses are left out.

Tested on: P388 leukemia ip, CD2F1 mice, survival T/C
Experiment: NCI In Vivo Anticancer Drug Screen. Data for tumor model P388 Leukemia (intraperitoneal) in CD2F1 (CDF1) mice
Settings: endpoint: median survival time, higher = longer survival
How it was run: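 Mice carrying the transplanted tumor received test compound or vehicle. Survival was recorded in each group, and the value is the treated-group measurement divided by that of the vehicle-treated control group.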

[1] = dose: 60.0 mg/kg/injection, schedule: Q01DX005 (ip), vehicle: Klucel (hydroxypropylcellulose) (HPC)
[2] = dose: 100.0 mg/kg/injection, schedule: Q04DX003 (ip), vehicle: saline with Tween-80
[3] = dose: 200.0 mg/kg/injection, schedule: Q04DX003 (ip), vehicle: saline with Tween-80
[4] = dose: 100.0 mg/kg/injection, schedule: Q01DX005 (ip), vehicle: saline with Tween-80
[5] = dose: 50.0 mg/kg/injection, schedule: Q01DX009 (ip), vehicle: saline with Tween-80
[6] = dose: 100.0 mg/kg/injection, schedule: Q01DX009 (ip), vehicle: saline with Tween-80
[7] = dose: 200.0 mg/kg/injection, schedule: Q01DX009 (ip), vehicle: saline with Tween-80
[8] = dose: 100.0 mg/kg/injection, schedule: Q01DX001 (ip), vehicle: Klucel (hydroxypropylcellulose) (HPC)
[9] = dose: 200.0 mg/kg/injection, schedule: Q01DX001 (ip), vehicle: Klucel (hydroxypropylcellulose) (HPC)
[10] = dose: 400.0 mg/kg/injection, schedule: Q01DX001 (ip), vehicle: Klucel (hydroxypropylcellulose) (HPC)
[11] = dose: 50.0 mg/kg/injection, schedule: Q01DX005 (ip), vehicle: Klucel (hydroxypropylcellulose) (HPC)
[12] = dose: 100.0 mg/kg/injection, schedule: Q01DX005 (ip), vehicle: Klucel (hydroxypropylcellulose) (HPC)
[13] = dose: 50.0 mg/kg/injection, schedule: Q01DX005 (ip), vehicle: saline with Tween-80
[14] = dose: 200.0 mg/kg/injection, schedule: Q01DX005 (ip), vehicle: saline with Tween-80
[15] = dose: 50.0 mg/kg/injection, schedule: Q01DX009 (ip), vehicle: Klucel (hydroxypropylcellulose) (HPC)
[16] = dose: 100.0 mg/kg/injection, schedule: Q01DX009 (ip), vehicle: Klucel (hydroxypropylcellulose) (HPC)
[17] = dose: 25.0 mg/kg/injection, schedule: Q04DX003 (ip), vehicle: saline with Tween-80
[18] = dose: 50.0 mg/kg/injection, schedule: Q04DX003 (ip), vehicle: saline with Tween-80
[19] = dose: 12.5 mg/kg/injection, schedule: Q01DX009 (ip), vehicle: saline with Tween-80

CCCCN(CCCC)C(=S)S
T/C (dose: 15.0 mg/kg/injection, schedule: Q01DX005 (ip), vehicle: Klucel (hydroxypropylcellulose) (HPC)): 105 % of control | T/C (dose: 30.0 mg/kg/injection, schedule: Q01DX005 (ip), vehicle: Klucel (hydroxypropylcellulose) (HPC)): 98 % of control | T/C [1]: 88 % of control

COc1cc2c(cc1OC)C(=O)c1nccc3ccc(OC)c(c13)O2
T/C (dose: 6.75 mg/kg/injection, schedule: Q01DX005 (ip), vehicle: Klucel (hydroxypropylcellulose) (HPC)): 100 % of control | T/C (dose: 13.5 mg/kg/injection, schedule: Q01DX005 (ip), vehicle: Klucel (hydroxypropylcellulose) (HPC)): 92 % of control | T/C (dose: 27.0 mg/kg/injection, schedule: Q01DX005 (ip), vehicle: Klucel (hydroxypropylcellulose) (HPC)): 101 % of control | T/C (dose: 54.0 mg/kg/injection, schedule: Q01DX005 (ip), vehicle: Klucel (hydroxypropylcellulose) (HPC)): 92 % of control

CCOC(=O)C(CCCCC(NC(C)=O)(C(=O)OCC)C(=O)OCC)(NC(C)=O)C(=O)OCC
T/C [2]: 100 % of control | T/C [3]: 100 % of control | T/C (dose: 400.0 mg/kg/injection, schedule: Q04DX003 (ip), vehicle: saline with Tween-80): 95 % of control

CNC(=O)OCc1c(COC(=O)NC)c2n(c1C)CS(=O)(=O)C2
T/C (dose: 25.0 mg/kg/injection, schedule: Q01DX005 (ip), vehicle: saline with Tween-80): 122 % of control | T/C [4]: 204 % of control and 211 % of control

O=C(O)C1=C(C=C2CCCCC2)OCCC1
T/C [5]: 88 % of control | T/C [6]: 92 % of control | T/C [7]: 95 % of control

CCOC(=O)[C@@H](F)[C@H](Br)C(=O)OCC
T/C [5]: 100 % of control and 110 % of control | T/C [6]: 113 % of control and 122 % of control

N#CCCCCC/C=C/CCCCCCC1C=CCC1 (stereo not given)
T/C (dose: 100.0 mg/kg/injection, schedule: Q01DX001 (ip), vehicle: saline): 100 % of control | T/C (dose: 200.0 mg/kg/injection, schedule: Q01DX001 (ip), vehicle: saline): 100 % of control | T/C (dose: 400.0 mg/kg/injection, schedule: Q01DX001 (ip), vehicle: saline): 96 % of control

NC(=O)CCCC(C(N)=O)(c1ccccc1)c1ccccc1
T/C [8]: 101 % of control | T/C [9]: 100 % of control | T/C [10]: 100 % of control

CCOP(=O)(CC(=O)NCc1cc(C(C)(C)C)c(O)c(C(C)(C)C)c1)OCC
T/C [5]: 100 % of control | T/C [6]: 93 % of control | T/C [7]: 96 % of control

O=C1NC(=O)/C(=C\c2ccccc2)C2=C1CCCC2
T/C (dose: 12.5 mg/kg/injection, schedule: Q01DX005 (ip), vehicle: Klucel (hydroxypropylcellulose) (HPC)): 103 % of control | T/C (dose: 25.0 mg/kg/injection, schedule: Q01DX005 (ip), vehicle: Klucel (hydroxypropylcellulose) (HPC)): 103 % of control | T/C [11]: 108 % of control

CC(C)CCC1(CCCl)C(=O)NC(=O)NC1=O
T/C [11]: 102 % of control | T/C [12]: 106 % of control

O=C1C=CC(=Nc2cccc3c2C(=O)c2ccccc2-3)O1
T/C [13]: 107 % of control and 115 % of control | T/C [4]: 120 % of control and 122 % of control | T/C [14]: 122 % of control

C1CCC(C2CCCC[N-]2)[N-]C1.[Cl][Ru+2][Cl] (stereo not given)
T/C (dose: 7.5 mg/kg/injection, schedule: Q01DX005 (ip), vehicle: saline): 103 % of control | T/C (dose: 15.0 mg/kg/injection, schedule: Q01DX005 (ip), vehicle: saline): 100 % of control | T/C (dose: 30.0 mg/kg/injection, schedule: Q01DX005 (ip), vehicle: saline): 103 % of control

CN1C(=O)[C@@H]2N(N(C)C1=O)[C@@]1(Br)C(=O)NC(=O)[C@@]21Br
T/C [1]: 97 % of control | T/C (dose: 120.0 mg/kg/injection, schedule: Q01DX005 (ip), vehicle: Klucel (hydroxypropylcellulose) (HPC)): 100 % of control | T/C (dose: 240.0 mg/kg/injection, schedule: Q01DX005 (ip), vehicle: Klucel (hydroxypropylcellulose) (HPC)): 91 % of control

C=C(C)CC1CN2CCc3cc(OC)c(OC)cc3C2CC1=O (stereo not given)
T/C [15]: 106 % of control | T/C [5]: 102 % of control | T/C [16]: 104 % of control | T/C [6]: 116 % of control

O=C(O)c1cc(Br)c2ccccc2c1O
T/C [17]: 100 % of control | T/C [18]: 100 % of control | T/C [2]: 100 % of control

c1ccc2c(c1)nnn1c3cnccc3nc21
T/C [19]: 111 % of control

Cn1c(=S)[nH]c2scc(-c3ccccc3)c2c1=O
T/C (dose: 60.0 mg/kg/injection, schedule: Q01DX005 (ip), vehicle: saline with Tween-80): 87 % of control | T/C (dose: 240.0 mg/kg/injection, schedule: Q01DX005 (ip), vehicle: saline with Tween-80): 96 % of control

O=[N+]([O-])/C=C/c1c(Cl)cccc1Cl
T/C (dose: 12.5 mg/kg/injection, schedule: Q04DX003 (ip), vehicle: saline with Tween-80): 99 % of control | T/C [17]: 100 % of control | T/C [18]: 100 % of control

COc1cc(C)c2c(c1OC)C(=O)OC2
T/C (dose: 100.0 mg/kg/injection, schedule: Q04DX003 (ip), vehicle: Klucel (hydroxypropylcellulose) (HPC)): 98 % of control | T/C (dose: 200.0 mg/kg/injection, schedule: Q04DX003 (ip), vehicle: Klucel (hydroxypropylcellulose) (HPC)): 97 % of control | T/C (dose: 400.0 mg/kg/injection, schedule: Q04DX003 (ip), vehicle: Klucel (hydroxypropylcellulose) (HPC)): 98 % of control

CCCCOc1ccc(C(=O)SCCCN=C(N)N)cc1
T/C (dose: 12.5 mg/kg/injection, schedule: Q01DX005 (ip), vehicle: saline): 98 % of control | T/C (dose: 25.0 mg/kg/injection, schedule: Q01DX005 (ip), vehicle: saline): 100 % of control | T/C (dose: 50.0 mg/kg/injection, schedule: Q01DX005 (ip), vehicle: saline): 96 % of control and 98 % of control and 105 % of control | T/C (dose: 100.0 mg/kg/injection, schedule: Q01DX005 (ip), vehicle: saline): 97 % of control

CSC(=C[N+](=O)[O-])SC
T/C (dose: 3.13 mg/kg/injection, schedule: Q01DX009 (ip), vehicle: water): 100 % of control | T/C (dose: 6.25 mg/kg/injection, schedule: Q01DX009 (ip), vehicle: water): 105 % of control | T/C (dose: 12.5 mg/kg/injection, schedule: Q01DX009 (ip), vehicle: water): 96 % of control | T/C (dose: 25.0 mg/kg/injection, schedule: Q01DX009 (ip), vehicle: water): 104 % of control

N#CCCSC(=S)C1CCCC1=N (stereo not given)
T/C [19]: 114 % of control and 123 % of control | T/C (dose: 25.0 mg/kg/injection, schedule: Q01DX009 (ip), vehicle: saline with Tween-80): 110 % of control and 116 % of control | T/C [5]: 104 % of control and 109 % of control | T/C [6]: 102 % of control and 116 % of control

C=C(C)COC(=O)C1C2CC(C3OC23)C1C(=O)OCC(=C)C (stereo not given)
T/C [11]: 102 % of control | T/C [12]: 104 % of control | T/C (dose: 200.0 mg/kg/injection, schedule: Q01DX005 (ip), vehicle: Klucel (hydroxypropylcellulose) (HPC)): 100 % of control

O=C1CNC(=O)N1CCO
T/C (dose: 12.5 mg/kg/injection, schedule: Q04DX003 (ip), vehicle: saline): 99 % of control | T/C (dose: 25.0 mg/kg/injection, schedule: Q04DX003 (ip), vehicle: saline): 106 % of control | T/C (dose: 50.0 mg/kg/injection, schedule: Q04DX003 (ip), vehicle: saline): 98 % of control | T/C (dose: 100.0 mg/kg/injection, schedule: Q04DX003 (ip), vehicle: saline): 99 % of control | T/C (dose: 200.0 mg/kg/injection, schedule: Q04DX003 (ip), vehicle: saline): 104 % of control | T/C (dose: 400.0 mg/kg/injection, schedule: Q04DX003 (ip), vehicle: saline): 104 % of control

CC1OC2=C(CC1O)C(=O)c1ccccc1C2=O (stereo not given)
T/C [8]: 102 % of control | T/C [9]: 102 % of control | T/C [10]: 100 % of control

CC1=NC(=O)C(N=O)C(=O)N1 (stereo not given)
T/C (dose: 100.0 mg/kg/injection, schedule: Q04DX002 (ip), vehicle: saline with Tween-80): 99 % of control | T/C (dose: 200.0 mg/kg/injection, schedule: Q04DX002 (ip), vehicle: saline with Tween-80): 97 % of control

CC(c1ccccc1)C1(C)NC(=O)NC1=O (stereo not given)
T/C [2]: 97 % of control | T/C [3]: 101 % of control

O=S(=O)(Nc1cc2c3ccccc3ccc2c2ccccc12)c1ccccc1
T/C [15]: 96 % of control | T/C [16]: 105 % of control | T/C (dose: 200.0 mg/kg/injection, schedule: Q01DX009 (ip), vehicle: Klucel (hydroxypropylcellulose) (HPC)): 100 % of control

COc1cc(/C=N/NC(=O)C(N)Cc2ccc(O)cc2)ccc1O (stereo not given)
T/C [13]: 100 % of control | T/C [4]: 94 % of control | T/C [14]: 103 % of control
